Patent publication US20050169908A1, “Use of aerosolized antithrombin to treat acute lung injury” (priority 2004, published 2005)

Legend:
[1] = test system: smoke inhalation injury followed by pneumonia; assay: Lung histopathology scores 24 h after smoke and bacterial challenge; format: in vivo, sheep; conditions: vs saline control
From the text: (§1) The Animal Care and Use Committee of The University of Texas Medical Branch approved the experiments reported in this manuscript. All animals were handled within the guidelines established by the American Physiological Society and the National Institutes of Health. Twenty four female sheep were surgically prepared for study under halothane anesthesia as previously described (9). After measurement of baseline cardiovascular data, sheep received a combination injury of smoke inhalation and bacteria instillation as previously described (3).
(§2) Briefly, P. aeruginosa (5×10^9/kg) was instilled intrabronchially after the cotton smoke exposure (4 sets of 12 breaths, <40° C.). After the smoke inhalation and bacterial instillation, animals were randomly assigned for the two treatment groups, ATIII nebulization group (n=6), argatroban-nebulization group (n=8), and saline nebulization control group (n=10). All animals were mechanically ventilated with 100% oxygen throughout the 24-h study (Tidal volume 12-15 ml/kg, 30 breaths/min, PEEP 7.5 cmH2O). Tidal volume was adjusted to maintain PaCO2 normal. The Ringer's lactate solution was injected in sufficient volume to prevent the hematocrit from rising. Initially, 2 ml/kg/h of Ringer's lactate was infused, and we adjusted the in rate up to 10 ml/kg/h based on the hematocrit levels.
Recombinant human antithrombin (rhAT) was dissolved in distilled water (250 mg/30 mL). Then, the ATIII solution was mixed with 60 mL saline and 15 mL of the mixed solution containing 41.7 mg ATIII was nebulized every 4 hrs. […] The control group received 15 ml saline nebulization as the same fashion. […]
(§3) A lung slice from the right lower lobe was histologically scored by a pathologist who was unaware of animal grouping (5). […] Airway obstruction by cast formation was also evaluated as previously described (3).
(§4) The statistical software StatView 5.0 (SAS Institute, Cary, N.C.) was used to perform the analysis. Data are expressed as means±SEM. Repeated measured analysis of variance (ANOVA) or ANOVA with Tuckey's post hoc test was used to compare data among the groups. […]

[2] = test system: smoke inhalation injury followed by pneumonia; assay: Microscopic evaluation of airway obstruction by cast formation; format: in vivo, sheep
From the text: as §1, §2
Recombinant human antithrombin (rhAT) was dissolved in distilled water (250 mg/30 mL). Then, the ATIII solution was mixed with 60 mL saline and 15 mL of the mixed solution containing 41.7 mg ATIII was nebulized every 4 hrs. […] The control group received 15 ml saline nebulization as the same fashion. The solutions were nebulized by an ultrasonic nebulizer (Ultra-Neb99, DeVilbiss Co., Somerset, Pa.), which was connected to the tracheobronchial tree as shown previously (10). The size of the particles obtained by the nebulizer is reported less than 4 microns. […]
as §3

[3] = test system: smoke inhalation injury followed by pneumonia; assay: Plasma nitrate/nitrite (NOx) levels; format: in vivo, sheep; conditions: over 24 h; vs saline-treated group (FIG. 6)
From the text: as §1
as §2, with “Initially, 2 ml/kg/h of Ringer's lactate was infused, and we adjusted the in rate up to 10 ml/kg/h based on the hematocrit levels.” left out
The concentration of NOx (total amount of nitric oxide metabolites) in plasma was measured with a chemiluminescent NO analyser (Antek, model 7020) as previously described (11).

[4] = test system: smoke inhalation injury followed by pneumonia; assay: Pulmonary gas exchange (PaO2/FiO2 ratio, pulmonary shunt fraction) after smoke inhalation and pneumonia in sheep; format: in vivo; conditions: nebulized every 4 hrs, 24-h study; vs saline-treated group (FIG. 1B)
Procedure: Recombinantly produced ATIII was dissolved in saline (42 mg/ml). Female sheep (n=24) were used. After the 48 breaths of cotton smoke (<40° C.), P. aeruginosa (5×10^11 CFU) was instilled in the both lungs. All the animals were mechanically ventilated by 100% O2 (Tidal volume 15 ml/kg, 30 breaths/min, PEEP 5 cmH2O). […] No animals died during the study.
as §1
Briefly, P. aeruginosa (5×10^9/kg) was instilled intrabronchially after the cotton smoke exposure (4 sets of 12 breaths, <40° C.). […]
as §4

P. aeruginosa = assay: Arterial blood culture for bacteremia; format: in vivo, sheep; conditions: during the 24 h study; no statistical difference from saline-treated group
From the text: as §1
as §2, with “levels. […]” for “levels.”

[5] = Blood counts (WBC, platelets) after injury; format: in vivo, sheep
From the text: as §1, §2
Recombinant human antithrombin (rhAT) was dissolved in distilled water (250 mg/30 mL). Then, the ATIII solution was mixed with 60 mL saline and 15 mL of the mixed solution containing 41.7 mg ATIII was nebulized every 4 hrs. […] The control group received 15 ml saline nebulization as the same fashion. The solutions were nebulized by an ultrasonic nebulizer (Ultra-Neb99, DeVilbiss Co., Somerset, Pa.), which was connected to the tracheobronchial tree as shown previously (10). The size of the particles obtained by the nebulizer is reported less than 4 microns. The nebulization was started one hour after the insult and every 4 hrs thereafter.
Arterial blood was cultured to test the bacteremia (Septi-check, Becton Dickinson, Sparks, Md.). Heparinized blood samples were carefully withdrawn from the femoral artery catheter at baseline and at 3, 6, 12, and 24 hrs.

[6] = 24 h, vs saline treated group (FIG. 4)

CC1CNc2c(cccc2S(=O)(=O)N[C@@H](CCCNC(=N)N)C(=O)N2CC[C@@H](C)C[C@@H]2C(=O)O)C1 (stereo partly shown) [Argatroban]
hemorrhage score [1]: not higher but less | individual histology scores in congestion, edema, inflammation, and hemorrhage (scale 0-4) [1]: almost the same scores as saline control | total histology score (maximum 16) [1]: did not attenuate | airway obstruction in bronchi levels [2, 6]: inhibited the obstruction significantly | airway obstruction in bronchiole levels [2, 6]: inhibited the obstruction significantly | prevention of cast formation (airway obstruction), comparison of the two agents ([2]; argatroban vs rhAT): more effective in preventing cast formation than rhAT | increase in plasma NOx levels [3]: not a statistical difference | increase in pulmonary shunt fraction after the insult [4]: significantly less | animals with P. aeruginosa detected in arterial blood culture (P. aeruginosa): 0% | Platelets ([5]; 24 hrs after injury, Mean ± SE): 297 ± 78 ×10^3/μL | WBC ([5]; 24 hrs after injury, Mean ± SE): 2.08 ± 0.81 ×10^3/μl | decrease in leukocyte number 24 h after the injury ([5]; in words, Table 1): did not affect | decrease in platelet count after the injury ([5]; in words, Table 1): slightly prevented
